Reference: publication PMC7822874, “Chemoprotective antimalarials identified through quantitative high-throughput screening of Plasmodium blood and liver stage parasites” (Scientific Reports, 2021)
Several values for one entry are separate records, joined by “and”; a condition that tells them apart may be missing. Equal entries are not always repeated. Where two headings read alike, the source gives them in different places.

Columns and labels:
[1] = tested on: P. falciparum Dd2 Cytb G131S; assay: SYBR Green ABS proliferation assay, NCGC00374598 selected clone C11; type: cell-based, Plasmodium falciparum; settings: second value triple, c6, […]; for AC50: Plasmodium falciparum, DD2, cytochrome b mutant line, read-out: log AC50, mean (converted); for log AC50, mean: cytochrome b mutant line
Procedure, shortened: (§1)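 Drug-selected Dd2 clones bearing the cytochrome b mutation were cultured at 37 °C under 5% CO2, 5% O2, 90% N2. Growth was read at 72 h by SYBR Green-I fluorescence, normalized to controls as percent response.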

[2] = tested on: P. falciparum Dd2 Cytb A122D; assay: SYBR Green ABS proliferation assay, NCGC00473217 selected clone F12; type: cell-based, Plasmodium falciparum; set-up: log AC50, mean: unit: Log[M]; settings: fourth value triple, c12, […]; for AC50: Plasmodium falciparum, DD2, cytochrome b mutant line, read-out: log AC50, mean (converted); for log AC50, mean: cytochrome b mutant line
Experimental: (§2) As resistance selection studies implicated the parasite cytochrome bc1 complex in mediating reduced parasite susceptibility to both NCGC00473217 and NCGC00374598, we leveraged these drug-selected parasites to test for altered drug response to a panel of antimalarial compounds.
(§3) The P. falciparum parasite Dd2 line was cultured in vitro using standard conditions. […] Tissue culture flasks and assay plates were incubated at 37 °C under a gas mixture of 5% CO2, 5% O2 and 90% N2. […] Significant differences were assessed using two-sided Student’s t-tests. All HTS assays were stopped and read at 72 h. Percent response values represent relative growth as judged by SYBR Green-I fluorescence intensity values normalized to controls.
(§4) Fresh uninfected RBCs (0.5% hematocrit) were added on day 7 and media was changed every other day. […] Resistant parasites were maintained under drug media at a volume of 50 mL until a high parasitemia (> 5%) was achieved. Aliquots of the bulk resistant cultures were frozen in cryovials before cloning by limiting dilution in 96-well plates (seeded at 0.25 or 0.5 parasites/well)[70]. After 3 weeks of cloning, we screened for positive wells by flow cytometry with SYBR Green-stained cells. […] Parasites were harvested by saponin lysis at the trophozoite stage and genomic DNA was extracted using the QIAamp DNA Blood Midi Kit (Qiagen, Germantown, MD)[71].

[3] = tested on: P. falciparum Dd2 Cytb F123L; assay: SYBR Green ABS proliferation assay, NCGC00473217 selected clone G08; type: cell-based, Plasmodium falciparum; set-up: log AC50, mean: unit: log10(M); settings: fifth value triple, c15, […]; for AC50: Plasmodium falciparum, DD2, cytochrome b mutant line, read-out: log AC50, mean (converted); for log AC50, mean: cytochrome b mutant line
Experimental: as §2, §3, §4

[4] = tested on: P. falciparum Dd2 Cytb V259L; assay: SYBR Green ABS proliferation assay, NCGC00473217 selected clone F06; type: cell-based, Plasmodium falciparum; set-up: log AC50, mean: unit: log M; settings: third value triple, c9, […]; for AC50: Plasmodium falciparum, DD2, cytochrome b mutant line, read-out: log AC50, mean (converted); for log AC50, mean: cytochrome b mutant line
Procedure, shortened: as §1

[5] = tested on: luciferase-expressing P. berghei liver stage parasites in HepG2 cells; assay: Inhibition of liver-stage development assay (ILSDA), Method 2 (WRAIR, 96-well); type: cell-based, Plasmodium berghei; settings: for AC50: Plasmodium berghei, HepG2, Method 2
[6] = tested on: Plasmodium falciparum Dd2 asexual blood stage parasites; assay: microbe, parasite or virus in culture; set-up: species or system Plasmodium falciparum Dd2 in human erythrocytes; single determination (one 11-point concentration-response curve); settings: Plasmodium falciparum, DD2, Erythrocyte, 72 h; read-out: AC50
[7] = tested on: T1, Plasmodium falciparum Dd2-attB-ScDHODH (transgenic line expressing yeast DHODH), asexual blood stages; assay: organism not typed; set-up: replicate k of 3 (each line is one of three independent assays; the three lines of one compound and parasite line follow each other); settings: 72 h, n = 1
T1 construct: Dd2-attB-ScDHODH, the transgenic line that expresses yeast DHODH
Procedure, shortened: (§5)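 Three independent runs, compound subset only; parental vs ScDHODH line compared by two-sided Student's t-test.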

[8] = tested on: T2, Plasmodium falciparum Dd2-attB (parental line), asexual blood stages; assay: microbe, parasite or virus in culture; set-up: replicate k of 3 (each line is one of three independent assays; the three lines of one compound and parasite line follow each other); settings: n = 1; for Individual replicates / Log AC50 (M): 72 h
T2 construct: Dd2-attB, the isogenic parental line
Procedure, shortened: as §5

SMILES	AC50 [1]	AC50 [2]	AC50 [3]	AC50 [4]	AC50 [6]	other results
COc1ccc(-c2nc(C3CC3)nc3c2CCN(Cc2cc(C)on2)CC3)cc1 [NCGC00374666-01]	8.09 µM	6.93 µM	5.31 µM	8.09 µM	–	Max Resp (signal direction of the dose response) ([5]; Method 2, Decrease = decreasing P. berghei viability with dose, Increase = increasing signal, Inactive = no dose response): Decrease; AC50 ([5]; Hill fit, 50% of maximum activity response, read-out: AC50): 0.794 µM; AC50 ([5]; log10 of molar AC50 from Hill fit, read-out: Log AC50 (converted)): 0.794 µM
CN(C)c1nc2c(c(=O)[nH]1)CCN(Cc1ccc(F)cc1Cl)CC2 [NCGC00440505-01]	6.18 µM	5.51 µM	1.74 µM	10.2 µM	10.6 µM	–
CN(C)c1nc2c(c(=O)[nH]1)CCN(Cc1ccccc1Br)CC2 [NCGC00440591-01]	6.93 µM	5.73 µM	1.44 µM	13.3 µM	9.44 µM	–
CN(C)c1nc2c(c(=O)[nH]1)CCN(Cc1ccc(Br)cc1)CC2 [NCGC00440593-01]	5.51 µM	4.55 µM	1.33 µM	9.79 µM	13.3 µM	–
O=c1[nH]c(N2CCOCC2)nc2c1CCN(Cc1ccccc1Br)CC2 [NCGC00440625-01]	6.43 µM	6.93 µM	1.19 µM	9.44 µM	15 µM	–
O=c1[nH]c(N2CCOCC2)nc2c1CCN(Cc1ccccc1C(F)(F)F)CC2 [NCGC00440637-01]	3.61 µM	2.66 µM	0.618 µM	8.09 µM	4.73 µM	–
O=c1[nH]c(N2CCOCC2)nc2c1CCN(Cc1cc(Br)ccc1F)CC2 [NCGC00440663-01]	6.68 µM	4.91 µM	3.61 µM	23.7 µM	5.31 µM	–
COc1ccc(-c2nc(C3CC3)nc3c2CCN(Cc2cccnc2)CC3)cc1 [NCGC00476959-01]	13.3 µM	19.5 µM	13.8 µM	18.1 µM	13.3 µM	–
O=C(c1ccc(C(F)(F)F)cc1)N1CCc2nc(C3CC3)nc(-c3ccc(Cl)cc3)c2CC1 [NCGC00476963-01]	12.8 µM	15 µM	8.41 µM	15.8 µM	13.3 µM	–
CCc1nc2c(c(-c3ccc(O)cc3)n1)CCN(Cc1ccc(OC)cc1)CC2 [NCGC00480297-01]	5.11 µM	6.18 µM	5.31 µM	5.11 µM	6.68 µM	–
CCc1nc2c(c(-c3ccc(O)cc3)n1)CCN(Cc1ccccc1C(F)(F)F)CC2 [NCGC00480300-01]	3.9 µM	4.22 µM	4.06 µM	4.73 µM	2.99 µM	–
CC(C)c1nc2c(c(-c3ccc(O)cc3)n1)CCN(CC1CCCCC1)CC2 [NCGC00480317-01]	5.73 µM	8.41 µM	5.11 µM	5.73 µM	4.73 µM	–
CC(C)c1nc2c(c(-c3ccc(O)cc3)n1)CCN(Cc1ccc(C(F)(F)F)cc1)CC2 [NCGC00480320-01]	3.76 µM	4.91 µM	4.55 µM	4.73 µM	5.31 µM	–
CC(C)c1nc2c(c(-c3ccc(O)cc3)n1)CCN(Cc1ccccc1C(F)(F)F)CC2 [NCGC00480324-01]	4.06 µM	4.55 µM	4.22 µM	4.73 µM	4.73 µM	–
CC(C)c1nc2c(c(-c3ccc(O)cc3)n1)CCN(Cc1ccc(OC(F)(F)F)cc1)CC2 [NCGC00480325-01]	5.31 µM	6.43 µM	6.68 µM	8.73 µM	2.99 µM	–
Cc1ccc(CN2CCc3nc(C4CC4)nc(-c4ccc(O)cc4)c3CC2)cc1 [NCGC00480348-01]	7.21 µM	7.78 µM	6.68 µM	6.93 µM	4.73 µM	–
Oc1ccc(-c2nc(C3CC3)nc3c2CCN(Cc2ccc(F)cc2)CC3)cc1 [NCGC00480352-01]	7.78 µM	–	6.93 µM	7.5 µM	–	Individual replicates / Log AC50 (M) [7]: -5.1486 Log AC50 (M) (2×) and -5.1986 Log AC50 (M); log AC50, mean [2]: -4.975; Individual replicates / Log AC50 (M) [8]: -5.2986 Log AC50 (M) and -5.2486 Log AC50 (M); AC50 ([8]; Plasmodium falciparum, DD2, 72 h, read-out: Individual replicates / Log AC50 (converted)): 5.64 µM
O=C(O)C(F)(F)F.Oc1ccc(-c2nc(C3CC3)nc3c2CCN(Cc2ccc(F)cc2)CC3)cc1 [NCGC00480352-02]	–	–	–	–	–	log AC50, mean [1]: -5.315; Individual replicates / Log AC50 (M) [7]: -5.0486 Log AC50 (M) (2×) and -4.8486 Log AC50 (M); log AC50, mean [2]: -5.349; Individual replicates / Log AC50 (M) [8]: -4.9986 Log AC50 (M) and -5.0986 Log AC50 (M) (2×); log AC50, mean [3]: -5.432; log AC50, mean [4]: -5.399
O=C(O)C(F)(F)F.Oc1ccc(-c2nc(C3CC3)nc3c2CCN(CC2CCCCC2)CC3)cc1 [NCGC00480361-02]	–	–	–	–	–	log AC50, mean [1]: -5.282; Individual replicates / Log AC50 (M) [7]: -5.0486 Log AC50 (M) and -5.1986 Log AC50 (M); log AC50, mean [2]: -5.499; Individual replicates / Log AC50 (M) [8]: -5.2486 Log AC50 (M); log AC50, mean [3]: -6.465; log AC50, mean [4]: -5.515
CCCN1C(CC(C)C)=N[S+](=O)([O-])c2cc(NC(=O)Cc3cccs3)ccc21 [NCGC00531815-01]	10 µM	5.22 µM	5.64 µM	7.67 µM	–	–
CCCN1C(CC2CCCCC2)=N[S+](=O)([O-])c2cc(NC(=O)c3ccc(F)cc3)ccc21 [NCGC00532335-01]	0.861 µM	3.3 µM	0.282 µM	5.32 µM	–	–
CCCN1C(Cc2ccccc2)=N[S+](=O)([O-])c2cc(NC(=O)c3cccs3)ccc21 [NCGC00532337-01]	3.05 µM	7.1 µM	10 µM	0.796 µM	–	–
CCCN1C(Cc2ccccc2)=N[S+](=O)([O-])c2cc(NC(=O)c3ccc(F)cc3)ccc21 [NCGC00532338-01]	0.0893 µM	3.17 µM	0.356 µM	0.767 µM	–	–
CCCN1C(CC(F)(F)F)=N[S+](=O)([O-])c2cc(NC(=O)c3cccs3)ccc21 [NCGC00532340-01]	6.32 µM	7.1 µM	7.1 µM	2 µM	–	–
CCCN1C(COC)=N[S+](=O)([O-])c2cc(NC(=O)c3cccs3)ccc21 [NCGC00532347-01]	1.78 µM	8.93 µM	0.00796 µM	8.93 µM	–	–
CCCN1C(CC2CCCCC2)=N[S+](=O)([O-])c2cc(NC(=O)c3cccs3)ccc21 [NCGC00532404-01]	0.966 µM	1.53 µM	3.99 µM	1.5 µM	–	–
CCCN1C(CC(C)C)=N[S+](=O)([O-])c2cc(NC(=O)Nc3cccs3)ccc21 [NCGC00537523-01]	2.67 µM	9.29 µM	9.66 µM	5.22 µM	–	–
CCCN1C(CC2CCOCC2)=N[S+](=O)([O-])c2cc(NC(=O)c3ccc(F)cc3)ccc21 [NCGC00537661-01]	0.2 µM	5.86 µM	4.84 µM	5.02 µM	–	–
CCCN1C(CC2CCOCC2)=N[S+](=O)([O-])c2cc(NC(=O)c3cccs3)ccc21 [NCGC00537663-01]	3.7 µM	2.82 µM	3.56 µM	4.66 µM	–	–
CCCN1C(CC2CCC2)=N[S+](=O)([O-])c2cc(NC(=O)c3cccs3)ccc21 [NCGC00537664-01]	0.466 µM	1.36 µM	1.78 µM	1.19 µM	–	–
